For one data set, the system named is C33A cells. Put plainly: CellTiter-Glo cell viability assay. The data set is classed as cell-based, human. The protocol: (§1) Biological Effect of Marine Sponge Natural Product Manzamine A on Cervical Cancer Cell Growth. We determined the biological activity of manzamine A on cervical cancer cells C33A (HPV-negative), HeLa, SiHa, and CaSki (HPV16/18-positive) using a wide range of concentrations (0-40 μM) at different time points (24, 48 and 72 hours). The CellTiter-Glo cell viability assay determined the cell viability based on metabolically active cells producing ATP in the cell culture. […] Twenty thousand (2×10^4) cells were seeded in ninety-six well plates and treated with a wide range of 1 μM to 40 μM concentration of manzamine A for three time points (24, 48 and 72 h). The experiment was repeated at least three times in quadruplicates from different cell preparations with similar results. Percent viable cells were used to calculate IC50 values and are shown in the inset for all the cell lines at their respective time-points. The percent viability values represent standard error from the mean (mean±SE).
(§2) Cell Culture. Human cervical cancer cell lines C33A, HeLa, SiHa, and CaSki were purchased from the American Type Culture Collection (ATCC, Manassas, VA). Cells were grown in Dulbecco's Modified Eagle Medium (DMEM) medium supplemented with 10% fetal bovine serum, 2 mM L-glutamine, 100 U/ml of penicillin-streptomycin, and maintained at 37° C. with 5% CO2 in a humidified incubator.
(§3) Cell Viability Assay. Cell viability was measured by using Cell Titer-Glo Luminescent Cell Viability Assay Kit (Promega, Leiden, Netherlands) according to the manufacturer's instructions. Briefly, 2×10^4 cells were seeded in 96 well plates. Next day, cells were treated with different concentrations of MA (0-40 μM) for 24, 48 and 72 hours. Percent viability was calculated using the formula: percent (%) viability=100×(Treatment/Control). The IC50 value was calculated from the dose responsive sigmoid curve generated from % viability using GrpaphPad Prism 7 software.
For orientation: In ATP-based viability assays light output follows the ATP content of the culture.

Another data set has as its system CaSki cells. Put plainly: CellTiter-Glo cell viability assay. The class given is cell-based, human. The protocol:
as §1, §2, §3

A further data set deals with HeLa cells. Put plainly: CellTiter-Glo cell viability assay. The class given is cell-based, human. The protocol: as §1, §2, §3
In data set [1] the test system is normal human keratinocytes (HKc). Put plainly: Cell growth kinetics of normal keratinocytes. The data set is classed as cell-based. The note with it: 4 μM stated for compound 4; 48 h and 72 h; vs DMSO control. The procedure: Based on MoIN, the additional manzamine-related compounds such as manzamine D (2), manzamine F (3), 8-hydroxymanzamine A (4), and ircinal A (5) were tested for their biological activities targeting cervical cancer cell lines (SiHa and CaSki).
Generation of Normal Human Keratinocytes (HKc). The generation and processing of normal HKc from de-identified foreskin tissue samples has previously been described in our studies, see Pirisi, L.; Yasumoto, S.; Feller, M.; Doniger, J.; DiPaolo, J. A. J. Virol. 1987, 61, 1061-1066, and was implemented with the following modifications: dispase was used in lieu of collagenase, and a trypsinization step was added to release the epidermal cells. Briefly, to generate normal HKc primary cultures, the foreskin tissue, free of subcutaneous tissue, was placed in 10% dispase in phosphate buffer saline (PBS) and incubated overnight at 37° C. The next day, the epidermis was separated from the dermis, and processed mechanically by shredding the tissue into smaller pieces that were then treated with Trypsin/EDTA for 10 minutes at 37° C. Following the addition of fetal bovine serum (10%) to stop the trypsin action, cells were collected by centrifugation and plated in keratinocytes serum free medium (KSFM).
Cell Growth Kinetics. […] The cell proliferation activity was determined by cell counting under the microscope with a hemocytometer using trypan blue staining.

The subject of data set [2] is p53, p21, cyclin D1, total Rb, phospho-Rb. Put plainly: Protein expression analysis of cell cycle regulatory proteins. The data set is classed as cell-based, human. Particulars: 2 and 4 μM, 48 h. The source says: Molecular Targets of Manzamine A (1). HeLa, SiHa and CaSki cell lines represent the most common form of cervical cancer infected by the HPV type 16 (SiHa and CaSki) and 18 (HeLa). Cervical cancer is primarily aggravated by the sustained expression of HPV-derived E6 and E7 oncogenes utilizing distinct mechanisms that affect cell-cycle checkpoints. For instance, E6 promotes p53 degradation, while E7 is associated with phosphorylation of retinoblastoma (Rb) proteins. See (22) Huh, K.; Zhou, X.; Hayakawa, H.; Cho, J. Y.; Libermann, T. A.; Jin, J.; Harper, J. W.; Munger, K. J. Virol. 2007, 81, 9737-9747 and Talis, A. L.; Huibregtse, J. M.; Howley, P. M. J. Biol. Chem. 1998, 273, 6439-6445. Both p53 and Rb are tumor suppressor genes and play a critical role in maintaining cell cycle regulation. Additionally, interaction of cyclin D1 with Rb protein and their expression levels correlate positively in association with tumorigenesis. Therefore, we sought to examine the molecular targets of manzamine A leading to anti-cancer activity in cervical cancer. […] Following the overnight attachment of 1×10^6 cells/well, the cells were treated with manzamine A (1) at 2 and 4 μM concentrations and incubated for 48 h. Cell lysates were prepared for protein analysis. […] However, detailed mechanistic studies of manzamine A determining anti-cancer effect are required to further substantiate these observations.
Protein Expression Analysis. C33A, HeLa, SiHa and CaSki cells were seeded at a density of 1×10^6 cells/100 mm petri dish. The next day, the cells were treated with 2 μM or 4 μM concentrations of manzamine A (1) or with 10, 20, or 40 μM concentrations with apigenin (Sigma, MO) and incubated for 48 hours. At the given time-point, the cells were harvested by trypsinization, washed with PBS, and lysed using radioimmunoprecipitation assay (RIPA) buffer containing a cocktail of protease inhibitors (Sigma, MO) to extract protein. Following quantification by colorimetric assay (Bio-Rad), equal amount of protein was loaded on to SDS-polyacrylamide gel and transferred to polyvinylidene difluoride (PVDF) membrane, which was blocked in 5% non-fat dry milk in tris-buffered saline with tween-20 (TBST) and incubated with primary antibody against p53, p21, Cyclin D1, SIX1, GAPDH (Cell signaling) or CK2α (R&D Systems) at a 1:500 dilution. For total CK2a, Rb and pRb, the blocking and antibody dilutions were made in 3% bovine serum albumin (BSA). The membrane was washed with TBST and incubated with secondary IgG HRP conjugate at 1:2000 dilution. The specific band of the protein was visualized with chemiluminescence reagent exposed onto BioMax Film (Kodak) and ChemoDoc-it^2 imager (UVP).

Broadly, the IC50 is the concentration that inhibits the measured activity by half. Higher therefore signals weaker potency in that assay.

`O[C@]12C=C(c3nccc4c3[nH]c3ccccc34)[C@@H]3CCN(CCCC/C=C\CC1)C[C@@]31C[C@@H]3/C=C\CCCCN3[C@H]12` [manzamine A]: the IC50 is 2.1 µM in the data set with C33A cells (48 hours); 1.6 µM in the data set with C33A cells (72 hours); 19.9 µM in the data set on CaSki cells (48 hours); 9.4 µM with CaSki cells (72 hours); 4 µM in the data set on HeLa cells (48 hours); 5.3 µM in the data set on HeLa cells (72 hours). Further, the “cell growth kinetics of normal HKc” value in data set [1] is listed as “no adverse effect”. In data set [2] (C33A), the p21 protein level entry was “not-detectable”. For the same compound, the p53 protein level result in data set [2] (C33A) was “did not show any change”. Moreover, the p21 level result in data set [2] (HeLa) is recorded as “remains unchanged”. Besides, in data set [2] (HeLa), the p53 level entry was “marginal increase”. The “cyclin D1, total Rb, and phospho-Rb protein level” value in data set [2] (SiHa and CaSki) is reported as “inhibition”. The “p53 and p21 protein level” value in data set [2] (SiHa and CaSki) is given as “increase”.

For the origin of these results see patent US12023330B2, “Use of manzamines as antiproliferative agent” (priority 2020, dated 2024).
